# According to patent US11147801B2, “Methods of use for trisubstituted benzotriazole derivatives as dihydroorotate oxygenase inhibitors” (Aurigene Discovery Technologies Limited, priority 2017, dated 2021):
# Legend:
# Ramos cells = test: Ramos proliferation assay (XTT); type: cell-based; conditions: Homo sapiens, 72 hrs
# Source text: Cell proliferation assay is a sensitive method for quantification of viable cells in cytotoxicity or proliferation assay. The XTT (2,3-bis[2-Methoxy-4-nitro-5-sulfophenyl]-2 H-tetrazolium-5-carboxyanilide inner salt) system is a means of measuring the activity of living cells via mitochondrial dehydrogenases. Mitochondrial dehydrogenases of viable cells cleave the tetrazolium ring of XTT, yielding orange formazon crystals which are soluble in aqueous solutions. The XTT solution is potentiated by the addition of an electron coupling agent, phenazine methosulphate (PMS) to the reaction. The resulting orange colour is spectrophotometrically measured at 450 nm. An increase or decrease in cell numbers results in a concomitant change in the amount of formazon formed, indicating the degree of cytotoxicity caused by the test material.
# Dissolve 17.7 g IMDM (Iscove's Modified Dulbecco's Medium) powder, 1.5 g sodium bicarbonate pH 7.2-7.4 in 1 L MiliQ water, add 1% Pencilin/ Streptomycin and 10% FBS.
# Dissolve 10.6 g Ham's F12 powder, 1.5 g sodium bicarbonate pH 7.2-7.4 in 1 L MiliQ water, add 1% Penicillin/Streptomycin. DMSO used as vehicle.
# Ramos cells were re-suspended to a density of 1×10^5 cells/ ml in complete IMDM medium. 95 μL of this cell suspension was added to the 96-well plate to seed ˜10,000 cells per well. The plates were incubated at 37° C. under a humidified atmosphere of 5% CO2 for ˜1 hour before compound addition.
# Test compounds (Refer to Table 1) were dissolved in 100% DMSO to generate a 2/6/10/20 mM stock solution. A 200× concentration of the required final concentrations was prepared in DMSO. 10 μL of each concentration (200×) was then diluted in 90 μL of serum-free Ham's F12 medium to get an intermediate concentration of 20× in medium. The DMSO concentration in this step is 10% (Intermediate dilution). 5 μL of each intermediate dilution was then added in triplicates in the previously seeded 96-well plate. The final DMSO concentration was 0.5% in the experimental wells. Cells treated with 0.5% DMSO served as positive control. 100 μL, of complete IMDM medium served as media blank for data analysis. 200 μL, of 1× PBS was added in all corner wells of the assay plate. Plates were then incubated for 72 hrs in an incubator with 5% CO2 at 37° C.
# On termination day, 100 μl of XTT solution (1 mg/ml XTT supplemented with 25 μM PMS in Ham's F12 medium) was added to each well. Plates were incubated for 2 hrs. The amount of formazon produced was determined by reading the absorbance of the plate using VICTOR X5 multilabel plate reader at wavelength of 450 nm. The IC50 values were determined as concentrations that reduced cell viability by 50% and the curve was plotted with GraphPad Prism 6.0.
# Percent (%) Inhibition was calculated by normalizing DMSO control values to 100% using the formula: % Inhibition=[…](Abs450test compound−blank)/(Abs450positive control−blank)*100
# Test compound contains cells, test compound, IMDM medium and 0.5% DMSO
# Positive control contains cells, IMDM medium and 0.5% DMSO
# Blank contains IMDM medium
# OCILY-19 tumors = test: OCILY-19 diffuse large B-cell lymphoma xenograft model; type: in vivo, CB17 SCID mice
# Method: 7×10^6 OCILY-19 cells were implanted subcutaneously into CB17 SCID mice. Mice (n=15-18/group) were treated with vehicle or Compound 1 at the indicated dose/frequency once tumors reached an average of ˜150 mm^3. Tissues were collected at the indicated timepoints post-last dose for PK and biomarker analyses.
# cancer lines = test: Cell growth assays with uridine supplemented into the medium (uridine rescue); type: cell-based
# Method: To confirm that the effects of Compound 1 in impairing cell growth/viability were due to specific inhibition of DHODH, cell growth assays were performed with varying amounts of uridine supplemented into the medium.
# MOLM-13 tumors = test: MOLM-13 acute myeloid leukemia xenograft model; type: in vivo
# Method: In vivo efficacy studies with Compound 1 were performed to assess the in vitro to in vivo translation of effects on blockade of DHODH and tumor cell growth inhibition. 1×10^6 MOLM-13 cells were implanted subcutaneously into CB17 SCID mice. Mice (n=15/group) were treated with vehicle or Compound 1 at 100 mg/kg BID PO once tumors reached an average of ˜150 mm^3. At end of the study, tissues were collected at the indicated timepoints post-last dose for pharmacokinetic (PK) and pathway biomarker analyses.
compound,measurement,setting,value
"Cc1ccccc1-c1ccc(-c2cc(C(=O)O)c3c(c2)nnn3C)cc1 [Compound 1, 1-methyl-5-(2′-methyl-[1,1′-biphenyl]-4-yl)-1H-benzo[d][1,2,3]triazole-7-carboxylic Acid]",inhibition at 30 µM,"Ramos cells; 30 μM, read-out: Maximum % Inhibition at 30 μM",107%
same,IC50,Ramos cells; XTT,0.049 µM
same,Efficacy of dosing regimen,OCILY-19 tumors; 100 mg/kg BID compared to 10 and 30 mg/kg BID,superior efficacy
same,Tumor DHO,"OCILY-19 tumors; 100 mg/kg BID versus 10 and 30 mg/kg BID, OCILY-19 tumors",larger increase
same,Total tumor uridine pools,"OCILY-19 tumors; 100 mg/kg BID, OCILY-19 tumors",decrease
same,Efficacy of dosing regimen,OCILY-19 tumors; 200 mg/kg QD compared to 100 mg/kg BID,less efficacious
same,In vivo tumor growth,"OCILY-19 tumors; OCILY-19 DLBCL xenograft, CB17 SCID mice",strong block in in vivo tumor growth
same,Half-life in mice,OCILY-19 tumors; mice,short half-life
same,Rescue of growth effects by exogenous uridine,"cancer lines; supraphysiologic uridine (25 μM and 100 μM), up to 10 μM of compound",completely rescued
same,Rescue of growth effects by exogenous uridine,cancer lines; uridine close to physiologic (5 μM),partially rescued
same,Tolerability,"MOLM-13 tumors; 100 mg/kg BID PO, CB17 SCID mice",well tolerated
same,Tumor growth inhibition (TGI),"MOLM-13 tumors; 100 mg/kg BID PO, MOLM-13 xenograft, 14 days",near complete tumor growth inhibition
same,Reduction of tumor uridine pools,"MOLM-13 tumors; 100 mg/kg BID, MOLM-13 tumors, depending on the timepoint",~60%
same,Tumor levels of dihydroorotate (DHO),"MOLM-13 tumors; 100 mg/kg BID, MOLM-13 tumors, over 12 hrs after last dose, baseline BQL<120 ng/g",dramatic increase
same,Pharmacokinetics profile in plasma and tumor,"MOLM-13 tumors; 100 mg/kg BID, after last dose",drop in drug concentrations by 12 hrs
